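In this assay, cells in 96-well plates receive the compound at five concentrations for 48 hours. Endpoints are linearly interpolated between the surrounding concentrations. TGI: concentration producing complete growth inhibition.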
Tests used:
Assay in all cases: growth of human tumour cells (NCI), 48 h
CAKI-1 renal = system: CAKI-1 renal
LOX IMVI melanoma = system: LOX IMVI melanoma
UACC-257 melanoma = system: UACC-257 melanoma
OVCAR-5 ovarian = system: OVCAR-5 ovarian
T-47D breast = system: T-47D breast
IGROV1 ovarian = system: IGROV1 ovarian
SW-620 colon = system: SW-620 colon
HOP-62 NSCLC = system: HOP-62 NSCLC
SNB-75 CNS = system: SNB-75 CNS
SK-OV-3 ovarian = system: SK-OV-3 ovarian
A498 renal = system: A498 renal
TK-10 renal = system: TK-10 renal
OVCAR-3 ovarian = system: OVCAR-3 ovarian
NCI/ADR-RES ovarian = system: NCI/ADR-RES ovarian
OVCAR-4 ovarian = system: OVCAR-4 ovarian
SNB-19 CNS = system: SNB-19 CNS
RPMI-8226 leukemia = system: RPMI-8226 leukemia
UACC-62 melanoma = system: UACC-62 melanoma
NCI-H226 lung = system: NCI-H226 lung
K-562 leukemia = system: K-562 leukemia

SMILES	TGI (CAKI-1 renal) [µM]	TGI (LOX IMVI melanoma) [µM]	TGI (UACC-257 melanoma) [µM]	TGI (OVCAR-5 ovarian) [µM]	TGI (T-47D breast) [µM]	TGI (IGROV1 ovarian) [µM]	TGI (SW-620 colon) [µM]	TGI (HOP-62 NSCLC) [µM]	TGI (SNB-75 CNS) [µM]	TGI (SK-OV-3 ovarian) [µM]	TGI (A498 renal) [µM]	TGI (TK-10 renal) [µM]	TGI (OVCAR-3 ovarian) [µM]	TGI (NCI/ADR-RES ovarian) [µM]	TGI (OVCAR-4 ovarian) [µM]	TGI (SNB-19 CNS) [µM]	TGI (RPMI-8226 leukemia) [µM]	TGI (UACC-62 melanoma) [µM]	TGI (NCI-H226 lung) [µM]	TGI (K-562 leukemia) [µM]
CC(=O)/C(=C/N1CC(=O)NC1=S)C(=O)Nc1ccccc1C	> 100	> 100	> 100	> 100	> 100	> 100	> 100	> 100	> 100	> 100	> 100	> 100	> 100	> 100	> 100	> 100	–	–	–	–
CCCCN(C)CC(C(C)=O)C(c1ccccc1)c1c(O)c2ccccc2oc1=O (stereo not drawn)	> 100	> 100	> 100	> 100	–	> 100	> 100	> 100	> 100	> 100	> 100	> 100	> 100	–	> 100	> 100	> 100	> 100	> 100	> 100
CN1/C(=C\N=O)C(C)(C)N(O)C1(C)C	> 100	> 100	> 100	> 100	> 100	> 100	> 100	> 100	> 100	> 100	–	> 100	> 100	> 100	> 100	> 100	> 100	> 100	> 100	> 100
COc1ccc(N[C@H](CS(=O)c2ccc(C)cc2)C(F)(F)F)cc1 (stereo partly drawn)	> 100	> 100	> 100	> 100	> 100	> 100	> 100	–	> 100	> 100	–	> 100	> 100	> 100	> 100	> 100	–	> 100	> 100	> 100
O=C([O-])c1ccccc1Nc1ccccc1C(=O)[O-].[OH3+].[Zn+2]	8.45	44.9	21.5	> 100	–	18.8	> 54.8	> 58.5	37.2	39	44.7	> 100	32.9	–	39.1	30.7	> 100	39.9	67	88.7
O=P(O)(O)c1ccc2c(c1)OCCOCCOCCOCCO2	–	> 100	> 100	–	> 100	> 100	> 100	> 100	> 100	> 100	> 100	> 100	–	–	–	> 100	> 100	> 100	> 100	> 100
